Data from ChEMBL document CHEMBL3301458, “MMV Malaria Box hERG screening”.
Active and inactive are the calls of the source. How the calls were made is not given here.

Columns and labels:
[1] = biological target: T1, hERG (Kv11.1, KCNH2) (Homo sapiens, UniProt Q12809); assay: in vitro
Description: MMV: Malaria Box compounds were tested for inhibition of the human ether a go-go related gene (hERG), Kv11.1 channel, using IonWorks 384-well patch clamp electrophysiology at 11.1uM (3 independent assay plates up to 12 cells per concentration).

[2] = biological target: T1, hERG (Kv11.1, KCNH2); assay: in vitro; remark: listed apart in the source
Description: MMV: Malaria Box compounds were tested for inhibition of the human ether a go-go related gene (hERG), Kv11.1 channel, using IonWorks 384-well patch clamp electrophysiology at 1.1uM (3 independent assay plates up to 12 cells per concentration).

T1 sequence (Q12809 whole entry): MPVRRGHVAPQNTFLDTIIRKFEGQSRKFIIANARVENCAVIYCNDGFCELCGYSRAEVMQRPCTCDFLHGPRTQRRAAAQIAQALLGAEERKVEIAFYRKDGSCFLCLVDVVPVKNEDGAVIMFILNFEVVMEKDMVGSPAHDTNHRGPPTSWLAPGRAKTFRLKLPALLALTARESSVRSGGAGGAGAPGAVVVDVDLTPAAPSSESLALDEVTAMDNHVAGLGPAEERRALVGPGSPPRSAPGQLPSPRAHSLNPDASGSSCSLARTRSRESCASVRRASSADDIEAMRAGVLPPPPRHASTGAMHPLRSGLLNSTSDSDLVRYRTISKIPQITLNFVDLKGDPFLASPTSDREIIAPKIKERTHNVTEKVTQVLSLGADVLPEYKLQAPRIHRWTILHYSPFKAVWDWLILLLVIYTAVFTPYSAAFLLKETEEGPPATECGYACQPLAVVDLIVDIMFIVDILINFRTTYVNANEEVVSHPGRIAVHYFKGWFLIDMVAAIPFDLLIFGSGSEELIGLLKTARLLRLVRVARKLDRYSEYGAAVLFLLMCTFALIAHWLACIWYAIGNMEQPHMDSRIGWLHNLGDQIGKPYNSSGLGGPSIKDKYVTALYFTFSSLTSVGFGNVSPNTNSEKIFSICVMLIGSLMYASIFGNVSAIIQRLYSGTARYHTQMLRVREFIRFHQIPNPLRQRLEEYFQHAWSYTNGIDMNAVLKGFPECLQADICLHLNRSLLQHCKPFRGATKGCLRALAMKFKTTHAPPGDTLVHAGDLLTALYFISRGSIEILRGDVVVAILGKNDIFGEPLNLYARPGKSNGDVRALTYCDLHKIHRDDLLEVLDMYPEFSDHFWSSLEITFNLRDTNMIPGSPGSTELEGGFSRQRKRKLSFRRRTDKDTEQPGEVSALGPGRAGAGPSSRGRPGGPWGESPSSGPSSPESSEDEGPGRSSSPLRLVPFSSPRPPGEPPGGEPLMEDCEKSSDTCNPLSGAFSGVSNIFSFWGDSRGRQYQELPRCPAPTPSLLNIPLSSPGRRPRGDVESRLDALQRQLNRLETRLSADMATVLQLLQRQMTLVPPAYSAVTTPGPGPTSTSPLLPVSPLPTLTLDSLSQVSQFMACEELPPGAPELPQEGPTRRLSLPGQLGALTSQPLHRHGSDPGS

Compound	inhibition at 11.1 µM [1]	inhibition at 1.1 µM [2] [%]
COc1ccc(Nc2nc(N/N=C/c3ccc(O)cc3)nc(Nc3ccc([N+](=O)[O-])cc3)n2)cc1	70% (active)	17
COc1ccc(-c2cc3c(nn2)-c2ccccc2C3=O)cc1	-7% (inactive)	-9
COc1ccc(C2c3ccc4ccccc4c3Oc3ncn(CCCN(C)C)c(=N)c32)cc1 (stereo not drawn)	86% (active)	32
CSC1=NC(=Nc2c(C)cccc2C)C2(CCC(C(C)(C)C)CC2)N1c1ccc(Cl)cc1 (stereo not drawn)	5% (inactive)	-5
COC(=O)c1ccc(Cl)c2c1C1C=CCC1C(c1cccc3ccccc13)N2 (stereo not drawn)	110% (active)	10
COc1ccc(C2c3ccc4ccccc4c3Oc3ncn(CCCn4ccnc4)c(=N)c32)cc1OC (stereo not drawn)	25%	23
CN(N=O)C1=C(NC2CCCCC2)C(=O)c2ccccc2C1=O	70% (active)	-2
Cc1ccc(-c2cc3c(nn2)-c2ccccc2C3=O)cc1	50% (active)	14
Oc1ccccc1CN1CCC2(CCCN(Cc3ccccc3F)C2)C1 (stereo not drawn)	59% (active)	1
COc1cccc(O)c1CN1CCC2(CCCN(Cc3ccc(F)cc3)C2)C1 (stereo not drawn)	86% (active)	0
CCOC(=O)C1=C(C)N=c2sc(=Cc3ccccc3O)c(=O)n2C1c1ccc(OC)c2ccccc12 (stereo not drawn)	2% (inactive)	13
Cc1nc2ccccc2c(O)c1CC=C(Cl)Cl	-2% (inactive)	-1
CCOc1ccc(N2C(N)=NC(N)=NC2(C)C)cc1	6% (inactive)	12
Cc1ccc(N2C(=O)C3C(C2=O)C2(c4ccccc4)C(=O)C3(c3ccccc3)C(c3ccccc3)=C2c2ccccc2)cc1 (stereo not drawn)	-3% (inactive)	10
COc1ccc(CN2CCCC(C(=O)c3ccc(C(F)(F)F)cc3)C2)c(O)c1 (stereo not drawn)	100%	58
CCCCCCc1cc2cc(-c3csc(C=Cc4ccccc4)n3)c(=O)oc2cc1O	93%	81
CCOC(=O)c1cn(CC)c2cc(N(C)CCc3ccc(OC)c(OC)c3)c(F)cc2c1=O	34%	3
O=c1nc(C=Cc2ccc(Br)cc2)oc2ccccc12	16% (inactive)	8
CC(=O)c1ccc(NC(=O)CSc2nc(-c3ccccc3Cl)ns2)cc1	7% (inactive)	-6
O=C(NC1CCCCC1)C(c1cccs1)N(CCc1ccccc1)C(=O)c1ccco1 (stereo not drawn)	53% (active)	13
O=[N+]([O-])c1ccc(C=NNc2nc3ccccc3[nH]2)cc1	44%	15
COc1ccc(CCN2CCC(CN(C)Cc3cnn(-c4ccccc4)c3)CC2)cc1	99% (active)	41

Compound	inhibition at 11.1 µM [1]	inhibition at 1.1 µM [2] [%]
COc1ccc(C(=O)NC(c2ccc(Cl)cc2Cl)c2cc(Cl)c3cccnc3c2O)cc1 (stereo not drawn)	-12% (inactive)	-3
O=C(NC(c1ccccc1)c1ccc2cccnc2c1O)c1ccccc1 (stereo not drawn)	17% (inactive)	1
COCCNC(=O)c1ccc(OC2CCN(Cc3ccc(F)c(F)c3)CC2)c(Cl)c1	68% (active)	7
COc1ccc(C2=C(c3ccc(OC)cc3)C3(c4ccccc4)C(=O)C2(c2ccccc2)C2C(=O)N(c4ccc(C)cc4)C(=O)C23)cc1 (stereo not drawn)	6% (inactive)	-8
CCOC(=O)C1=C(c2ccccc2)N=c2sc(=Cc3cc(C)n(-c4ccc(F)cc4)c3C)c(=O)n2C1c1cccc(OC)c1OC (stereo not drawn)	11% (inactive)	3
O=C(NC1CCCC1)c1ccc(N2CCC(NCc3cccc(C(F)(F)F)c3)CC2)cc1	101%	76
O=C(CCc1ccco1)NC1CCN(CC2(c3ccc(Cl)cc3)CCC2)CC1	65% (active)	10
COc1cccc(C=Cc2nc(=O)c3ccccc3o2)c1OC	-4% (inactive)	-3
COc1ccc(CCn2c(=N)c(C(=O)NCc3cccnc3)cc3c(=O)n4cccc(C)c4nc32)cc1	14% (inactive)	19
COc1ccc(CNC2CCN(c3ccc(NC(=O)c4cccc(Cl)c4)cc3)CC2)cc1OC	102%	84
COCCN(C(=O)Cc1cccs1)C(C(=O)NCc1ccc(OC)cc1)c1ccc(C(C)C)cc1 (stereo not drawn)	52% (active)	11
COc1ccc(C=C2SC(=N)N(c3ccccc3OC)C2=O)cc1	43%	7
CCOC(=O)c1c(C)n(-c2ccc(Cl)cc2)c2ccc(OC(=O)C=Cc3ccccc3)cc12	9% (inactive)	2
Cc1ccc(OCCCCCCNCCO)c(C)c1	21% (inactive)	-6
FC(F)(F)c1cccc(CNC2CCN(CCc3ccccc3)CC2)c1	97% (active)	4
OC(Cn1nnc2ccccc21)Cn1c2ccc(Br)cc2c2cc(Br)ccc21 (stereo not drawn)	17% (inactive)	21
CN(C)c1ccc(-c2nc3cc(N)ccc3[nH]2)cc1	36%	14
Cc1ccc2cc3c(N)c4c(C)ccc(C)c4nc3nc2c1	60% (active)	16
COc1ccccc1C(=O)ON=C(N)Cc1cccc2ccccc12	34%	2
CCCC(c1nnnn1C1CCCCC1)N1CCN(C(=O)c2ccco2)CC1 (stereo not drawn)	52% (active)	3
COc1cc(C(=O)ON=C(N)Cc2cccc3ccccc23)cc(OC)c1OC	89% (active)	26
Cc1ccc(CN2CCC(C(=O)Nc3ccc(-c4cc5ccccc5[nH]4)cc3)CC2)o1	88% (active)	9

Compound	inhibition at 11.1 µM [1]	inhibition at 1.1 µM [2] [%]
Cc1cc(C=C2SC(=Nc3ccccc3)N(C3CCCC3)C2=O)c(C)n1-c1ccc(Cl)cc1	-5% (inactive)	5
CCn1c(SCC(=O)Nc2cc(C(F)(F)F)ccc2Cl)nc2ccccc2c1=O	34%	-1
O=C(Nc1ccc(Cl)cc1C(=O)Nc1ccncc1)c1ccc(Cl)cc1Cl	39%	4
CC(C)(C)c1ccc(C(=O)Nc2c3c(nn2-c2cccc(Cl)c2)CSC3)cc1	0% (inactive)	4
COc1ccc(C2N(C)c3ccccc3N2C)cc1	-5% (inactive)	-13
CCOC(=O)C1(Cc2ccccc2)CCN(Cc2cccc(OC)c2O)CC1	80% (active)	18
CN(C)c1ccc(N2C(N)=NC(N)=NC2(C)C)cc1	11% (inactive)	10
COc1ccc(C(=O)NC(c2ccccc2Cl)c2cc(Cl)c3cccnc3c2O)cc1 (stereo not drawn)	7% (inactive)	9
CCCCCCc1cc(O)c2c3c(c(=O)oc2c1)CCC(C)C3 (stereo not drawn)	-7% (inactive)	-5
CCCc1c(C)nc2ccc(Br)cc2c1O	2% (inactive)	1
CCCc1c(C)nc2ccccc2c1O	7% (inactive)	-17
CC1=C(CC(=O)c2cccc([N+](=O)[O-])c2)C(=O)c2ccccc2C1=O	17% (inactive)	9
OC1CCCCC1C1(NC(=S)Nc2ccccc2)CCCCC1 (stereo not drawn)	51% (active)	26
CCCCCCc1cc2cc(-c3nc4ccccc4[nH]3)c(=Nc3ccccc3C)oc2cc1O	-1% (inactive)	2
CN1c2ccccc2N(C)C1c1ccc2c(c1)OCO2	17% (inactive)	-1
c1ccc(Cn2c(N=Nc3c(Nc4ccccc4)ccc4ccccc34)nc3ccccc32)cc1	-2% (inactive)	-2
C=C(C)CCC(C)N1CCC(N2CCC(C(=O)NCCc3ccccc3)CC2)CC1 (stereo not drawn)	71% (active)	8
Nc1ccn([C@@H]2O[C@H](CO)[C@@H](O)[C@H]2O)c(=O)n1 [CYTIDINE]	8% (inactive)	0
O=C(Nc1cccc(C2=NCCN2)c1)Nc1cccc(C2=NCCN2)c1 [IMIDOCARB]	110%	59
CN(C)c1ccc(C(O)(c2ccc(N(C)C)cc2)c2ccc(N(C)C)cc2)cc1 [METHYLROSANILINE]	103% (active)	48
